The values below come from patent US6521654B2, “Substituted imidazolidine derivatives, their preparation, their use and pharmaceutical preparations including them” (Aventis Pharma Deutschland GmbH, priority 1997, dated 2003).

The target of the test is T1, interaction between VCAM-1 and VLA-4 (Homo sapiens, UniProt P05556+P13612).
T1 construct: supplied in their natural form as surface molecules on human U937 cells; host or cells: U937 cells carry endogenous VLA-4; The partner hVCAM-1(1-3)-IgG was made in house in transfected COS cells (ATCC CRL1651) and used as culture supernatant
T1 sequence (P13612 34-1032): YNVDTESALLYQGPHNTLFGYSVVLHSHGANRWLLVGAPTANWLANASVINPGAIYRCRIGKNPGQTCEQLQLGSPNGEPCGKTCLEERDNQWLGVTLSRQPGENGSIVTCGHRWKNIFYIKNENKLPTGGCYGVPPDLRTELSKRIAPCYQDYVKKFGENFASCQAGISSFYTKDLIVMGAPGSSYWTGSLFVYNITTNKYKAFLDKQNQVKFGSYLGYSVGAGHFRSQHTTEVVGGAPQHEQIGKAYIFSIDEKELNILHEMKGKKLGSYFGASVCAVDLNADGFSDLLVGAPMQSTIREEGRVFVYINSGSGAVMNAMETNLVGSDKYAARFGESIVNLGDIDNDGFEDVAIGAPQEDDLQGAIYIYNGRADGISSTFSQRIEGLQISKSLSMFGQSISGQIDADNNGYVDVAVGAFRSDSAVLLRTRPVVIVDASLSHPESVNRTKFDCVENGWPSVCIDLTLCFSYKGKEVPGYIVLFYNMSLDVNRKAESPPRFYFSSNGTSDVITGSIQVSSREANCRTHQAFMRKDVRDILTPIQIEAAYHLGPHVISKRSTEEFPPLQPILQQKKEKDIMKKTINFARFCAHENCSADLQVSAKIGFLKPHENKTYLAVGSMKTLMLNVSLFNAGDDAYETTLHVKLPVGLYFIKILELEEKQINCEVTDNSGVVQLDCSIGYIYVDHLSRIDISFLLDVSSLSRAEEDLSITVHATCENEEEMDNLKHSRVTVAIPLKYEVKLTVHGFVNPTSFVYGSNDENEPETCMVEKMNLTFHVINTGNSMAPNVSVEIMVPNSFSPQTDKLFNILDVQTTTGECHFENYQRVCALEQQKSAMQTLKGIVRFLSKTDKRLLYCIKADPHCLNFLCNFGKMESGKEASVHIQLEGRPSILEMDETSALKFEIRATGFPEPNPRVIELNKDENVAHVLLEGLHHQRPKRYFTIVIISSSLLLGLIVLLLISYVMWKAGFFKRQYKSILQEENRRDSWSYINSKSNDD
T1 sequence (P05556 21-798): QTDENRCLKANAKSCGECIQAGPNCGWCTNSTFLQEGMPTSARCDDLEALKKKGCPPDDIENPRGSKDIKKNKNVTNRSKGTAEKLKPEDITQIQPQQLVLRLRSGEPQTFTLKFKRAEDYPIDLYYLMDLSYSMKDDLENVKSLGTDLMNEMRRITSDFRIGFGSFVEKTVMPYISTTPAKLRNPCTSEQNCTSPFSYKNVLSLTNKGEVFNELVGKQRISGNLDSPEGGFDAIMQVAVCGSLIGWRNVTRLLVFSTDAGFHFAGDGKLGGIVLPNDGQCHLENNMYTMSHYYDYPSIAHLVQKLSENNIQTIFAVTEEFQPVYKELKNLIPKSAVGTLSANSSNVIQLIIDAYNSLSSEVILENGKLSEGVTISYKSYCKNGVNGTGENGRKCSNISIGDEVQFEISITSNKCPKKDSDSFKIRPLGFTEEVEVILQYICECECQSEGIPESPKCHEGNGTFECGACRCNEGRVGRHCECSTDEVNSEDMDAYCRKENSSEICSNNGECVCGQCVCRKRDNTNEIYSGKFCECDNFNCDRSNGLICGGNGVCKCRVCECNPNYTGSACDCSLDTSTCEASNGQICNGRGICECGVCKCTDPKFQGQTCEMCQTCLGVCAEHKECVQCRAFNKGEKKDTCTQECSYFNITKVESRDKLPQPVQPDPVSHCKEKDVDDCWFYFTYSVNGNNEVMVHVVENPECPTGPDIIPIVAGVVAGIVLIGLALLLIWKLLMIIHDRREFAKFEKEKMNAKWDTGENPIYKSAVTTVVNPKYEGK
Kind of test: U937/VCAM-1 cell adhesion test (adhesion of U937 cells to hVCAM-1(1-3)-IgG). In kind it is cell-based. Particulars: concentration leading to 50% inhibition of adhesion of human U937 cells (ATCC CRL 1593) to hVCAM-1(1-3)-IgG. The text has this:
The test method used for the activity of the compounds of the formula I on the interaction between VCAM-1 and VLA-4 is the assay described below which is specific for this interaction. The cellular binding components, i.e., the VLA-4 integrins, are supplied in their natural form as surface molecules on human U937 cells (ATCC CRL 1593). which belong to the leucocytes group. The specific binding components used are genetically engineered recombinant soluble fusion proteins, consisting of the extracytoplasmatic domain of human VCAM-1 and the constant region of a human immunoglobulin of the subclass IgG1.
Assay for the Measurement of the Adhesion of U937 Cells (ATCC CRL 1593) to hVCAM-1(1-3)-IgG
1. Preparation of Human VCAM-1 (1-3)-IgG and Human CD4-IgG
A genetic construct for the expression of the extracellular domain of human VCAM-1, associated with the genetic sequence of the heavy chain of human immunoglobulin IgG1 (hinge, CH2 and CH3 regions), from Dr. Brian Seed, Massachusetts General Hospital. Boston, USA was employed (cf. Damle and Aruffo, Proc. Natl. Acad. Sci. USA 1991, 88, 6403-6407). The soluble fusion protein hVCAM-1(1-3)-IgG contained the three amino-terminal extracellular immunoglobulin-like domains of human VCAM-1 (Damle and Aruffo, Proc. Natl. Acad. Sci. USA 1991, 88, 6403-6407). CD4-IgG (Zettimeissl et al., DNA and Cell Biology 1990, 9, 347) served as a fusion protein for negative controls. The recombinant proteins were expressed as soluble proteins after DEAE/dextran-mediated DNA transfection in COS cells (ATCC CRL1651) according to standard procedures (Ausubel et al., Current Protocols in Molecular Biology, John Wiley & Sons, Inc., 1994).
2. Assay for the Measurement of the Adhesion of U937 Cells to hVCAM-1 (1-3)-IgG
2.1 96-well microtiter test plates (Nunc Maxisorb) were incubated at room temperature for 1 hour with 100 μl/well of a goat-anti-human IgG antibody solution (10 μg/ml in 50 mM tris, pH 9.5). After removal of the antibody solution, washing was carried out once with PBS.
2.2 150 μl/well of a blocking buffer (1% BSA in PBS) were incubated on the plates at room temperature for 0.5 hour. After removal of the blocking buffer, washing was carried out once with PBS.
2.3 100 μl per well of a cell culture supernatant of transfected COS cells were incubated on the plates at room temperature for 1.5 hours. The COS cells were transfected with a plasmid which codes for the three N-terminal immunoglobulin-like domains of VCAM-1, coupled to the Fc part of human IgG1 (hVCAM-1 (1-3)-IgG). The content of hVCAM-1 (1-3)-IgG was about 0.5-1 μg/ml. After removal of the culture supernatant, washing was carried out once with PBS.
2.4 The plates were incubated at room temperature for 20 minutes with 100 μl/well of Fc receptor blocking buffer (1 mg/ml of γ-globulin, 100 mM NaCl, 100 μM MgCl2, 100 μM MnCl2, 100 μM CaCl2, 1 mg/ml of BSA in 50 mM HEPES, pH 7.5). After removal of the Fc receptor blocking buffer, washing was carried out once with PBS.
2.5 20 μl of binding buffer (100 mM NaCl, 100 μM MgCl2, 100 μM MnCl2, 100 μM CaCl2, 1 mg/ml of BSA in 50 mM HEPES, pH 7.5) were initially introduced, and the substances to be tested were added in 10 μl of binding buffer and incubated for 20 minutes. The controls used were antibodies against VCAM-1 (BBT, No. BBA6) and against VLA-4 (immunotech, No. 0764).
2.6 U937 cells were incubated in Fc receptor blocking buffer for 20 minutes and then added by pipette in a concentration of 1×10^6/ml and in an amount of 100 μl per well ([…]).
2.7 The plates were slowly immersed at an angle of 45° in stop buffer (100 mM NaCl, 100 μM MgCl2, 100 μM MnCl2, 100 μM CaCl2 in 25 mM tris, pH 7.5) and shaken off. The process was repeated.
2.8 50 μl/well of a dye solution (16.7 μg/ml of Hoechst Dye 33258, 4% formaldehyde, 0.5% triton X-100 in PBS) were then incubated on the plates for 15 minutes. […]
In turn, `CC(C)CC(C(=O)N[C@@H](CC(=O)O)C(=O)N[C@H](C(=O)O)c1ccccc1)N1C(=O)N(Cc2ccc(NC(=O)Nc3ccccc3)cc2)C(C)(c2ccccc2)C1=O` (mixture of isomers) [Example 1, ((RS)-2-((RS)-4-Phenyl-3-(4-(3-phenylureido)benzyl)-4-methyl-2,5-dioxoimidazolidin-1-yl)-2-(2-methylpropyl)acetyl)-L-aspartyl-L-phenylglycine] showed an IC50 of 4 nM. Next, `COc1ccc([C@H](CC(=O)O)NC(=O)C(CC(C)C)N2C(=O)N(Cc3ccc(NC(=O)Nc4ccccc4C)cc3)C(C)(c3ccccc3)C2=O)c(OC)c1` (mixture of isomers) [Example 189, (S)-3-((RS)-2-((RS)-4-Methyl-4-phenyl-3-(4-(3-(2-methylphenyl)ureido)benzyl)-2,5-dioxoimidazolidin-1-yl)-2-(2-methylpropyl)acetylamino)-3-(2,4-dimethoxyphenyl)propionic Acid]: 50 nM; `Cc1ccccc1NC(=O)Nc1ccc(CN2C(=O)N([C@@H](CC(C)C)C(=O)NC(CC(=O)O)c3ccccc3)C(=O)C2(C)C)cc1` (mixture of isomers) [Example 196, (RS)-3-((S)-2-(4,4-Dimethyl-3-(4-(3-(2-methylphenyl)ureido)benzyl)-2,5-dioxoimidazolidin-1-yl)-2-(2-methylpropyl)acetylamino)-3-phenylpropionic Acid]: 25 nM; `CCCCS(=O)(=O)NC(CNC(=O)C(CC(C)C)N1C(=O)N(Cc2ccc(NC(=O)Nc3ccccc3C)cc2)C(C)(c2ccccc2)C1=O)C(=O)O` (racemic) [Example 195, (RS)-2-Butylsulfonylamino-3-((RS)-2-((RS)-4-methyl-4-phenyl-3-(4-(3-(2-methyl-phenyl)ureido)benzyl)-2,5-dioxoimidazolidin-1-yl)-2-(2-methylpropyl)acetylamino)propionic Acid]: 23 nM. Consider `Cc1ccccc1NC(=O)Nc1ccc(CN2C(=O)N(C(CC(C)C)C(=O)N[C@@H](CC(=O)O)C(=O)N[C@H](C(=O)OC(C)(C)C)c3ccccc3)C(=O)C2(C)c2ccccc2)cc1` (mixture of isomers) [Example 219], for which the half-maximal inhibitory concentration (IC50) came to 175 nM. This IC50 lies about 7.6-fold higher than the previous one. Next, `CC(C)C[C@@H](C(=O)N[C@@H](CC(=O)O)c1ccc2c(c1)OCO2)N1C(=O)N(Cc2ccc(NC(=O)Nc3ccccc3)cc2)C(C)(C)C1=O` [Example 5, (S)-3-((S)-2-(4,4-Dimethyl-3-(4-(3-phenylureido)benzyl)-2,5-dioxoimidazolidin-1-yl)-2-(2-methylpropyl)acetylamino)-3-(3,4-methylenedioxyphenyl)propionic Acid]: 5 nM.

Molecule `CC(C)C[C@@H](C(=O)N[C@H](C)CC(=O)O)N1C(=O)N(Cc2ccc(NC(=O)Nc3ccccc3)cc2)C(C)(C)C1=O` [Example 6, (R)-3-((S)-2-(4,4-Dimethyl-3-(4-(3-phenylureido)benzyl)2,5-dioxoimidazolidin-1-yl)-2-(2-methylpropyl)acetylamino)-3-methylpropionic Acid] gave an IC50 of 30 nM. Next, `Cc1ccccc1NC(=O)Nc1ccc(CN2C(=O)N([C@@H](CC(C)C)C(=O)N[C@@H](CC(=O)O)c3ccc4c(c3)OCO4)C(=O)C2(C)C)cc1` [Example 7, (S)-3-((S)-2-(4,4-Dimethyl-3-(4-(3-(2-methylphenyl)ureido)benzyl)-2,5-dioxoimidazolidin-1-yl)-(2-methylpropyl)acetylamino)-3-(3,4-methylenedioxyphenyl)propionic Acid]: 2.5 nM; `Cc1ccccc1NC(=O)Nc1ccc(CN2C(=O)N([C@@H](CC(C)C)C(=O)N[C@H](C)CC(=O)O)C(=O)C2(C)C)cc1` [Example 8, (R)-3-((S)-2-(4,4-Dimethyl-3-(4-(3-(2-methylphenyl)ureido)benzyl)-2,5-dioxoimidazolidin-1-yl)-2-(2-methylpropyl)acetylamino)-3-methylpropionic Acid]: 3.8 nM.

In turn, `Cc1ccccc1NC(=O)Nc1ccc(CN2C(=O)N(CC(=O)N[C@H](C)CC(=O)O)C(=O)C2(C)C)cc1` [Example 9, (R)-3-(2-(4,4-Dimethyl-3-(4-(3-(2-methylphenyl)ureido)benzyl)-2,5-dioxoimidazolidin-1-yl)acetylamino)-3-methylpropionic Acid] showed an IC50 of 20 nM. Next, `Cc1ccccc1NC(=O)Nc1ccc(CN2C(=O)N([C@@H](CC(C)C)C(=O)NCC(=O)O)C(=O)C2(C)C)cc1` [Example 10, 2-((S)-2-(4,4-Dimethyl-3-(4-(3-(2-methylphenyl)ureido)benzyl)-2,5-dioxoimidazolidin-1-yl)-2-(2-methylpropyl)acetylamino)acetic Acid]: 600 nM. Next, `Cc1ccccc1NC(=O)Nc1ccc(CN2C(=O)N(CC(=O)N[C@@H](CC(=O)O)c3ccccc3)C(=O)C2(C)C)cc1` [Example 11, (S)-3-(2-(4,4-Dimethyl-3-(4-(3-(2-methylphenyl)ureido)benzyl)2,5-dioxoimidazolidin-1-yl)acetylamino)-3-phenylpropionic Acid]: 10 nM; `Cc1ccccc1NC(=O)Nc1ccc(CN2C(=O)N(CC(=O)NCCC(=O)O)C(=O)C2(C)C)cc1` [Example 15, 3-(2-(4,4-Dimethyl-3-(4-(3-(2-methylphenyl)ureido)benzyl)-2,5-dioxoimidazolidin-1-yl)acetylamino)propionic Acid]: 30 nM; `Cc1ccccc1NC(=O)Nc1ccc(CN2C(=O)N([C@@H](CC(C)C)C(=O)NCCC(=O)O)C(=O)C2(C)C)cc1` [Example 16, 3-((S)-2-(4,4-Dimethyl-3-(4-(3-(2-methylphenyl)ureido)benzyl)-2,5-dioxoimidazolidin-1-yl)-2-(2-methylpropyl)acetylamino)propionic Acid]: 55 nM.

`Cc1ccccc1NC(=O)Nc1ccc(CN2C(=O)N([C@@H](CC(C)C)C(=O)N[C@@H](CC(=O)O)c3ccccc3)C(=O)C2(C)C)cc1` [Example 17, (S)-3-((S)-2-(4,4-Dimethyl-3-(4-(3-(2-methylphenyl)ureido)benzyl)-2,5-dioxoimidazolidin-1-yl)-2-(2-methylpropyl)acetylamino)-3-phenylpropionic Acid] yielded a 50% inhibitory concentration (IC50) of 1.5 nM. Next, `CC(C)C[C@@H](C(=O)N[C@@H](CC(=O)O)c1ccccc1)N1C(=O)N(Cc2ccc(NC(=O)Nc3ccccc3)cc2)C(C)(C)C1=O` [Example 19]: 3 nM. `Cc1ccccc1NC(=O)Nc1ccc(CN2CC(=O)N(CC(=O)N(C)[C@@H](CC(=O)O)C(=O)NC3C4CC5CC(C4)CC3C5)C2=O)cc1` (stereo partly drawn) [Example 20]: inhibition was half-maximal at 160 nM (IC50).

For `Cc1ccccc1NC(=O)Nc1ccc(CN2CC(=O)N(CC(=O)N[C@@H](CC(=O)O)C(=O)NC3C4CC5CC(C4)CC3C5)C2=O)cc1` (stereo partly drawn) [Example 21], the IC50 came out at 520 nM.
